Test results published in publication PMC2994877, “A Full Pharmacological Analysis of the Three Turkey β-Adrenoceptors and Comparison with the Human β-Adrenoceptors” (PLoS ONE, 2010).
pKd: −log10 of the molar value. Like-named read-outs stand apart in the source and are kept apart here.

How the values were obtained:
[1] = molecular target: Human β3-adrenoceptor; conditions: Human β3, given for comparison; ref 25 and 30; cited from earlier work
[2] = molecular target: T1, turkey β4C-adrenoceptor (tβ4C) (Meleagris gallopavo, UniProt P43141); test: cell-based; assay type: binding; conditions: for Kd / Log KD: competition with 3H-CGP12177, whole cells, CHO tβ4C, given as log KD, mean ± s.e.m.; for Kd: read-out: Log KD (converted)
T1 construct: expressed in transfected cells
T1 sequence (P43141 whole entry): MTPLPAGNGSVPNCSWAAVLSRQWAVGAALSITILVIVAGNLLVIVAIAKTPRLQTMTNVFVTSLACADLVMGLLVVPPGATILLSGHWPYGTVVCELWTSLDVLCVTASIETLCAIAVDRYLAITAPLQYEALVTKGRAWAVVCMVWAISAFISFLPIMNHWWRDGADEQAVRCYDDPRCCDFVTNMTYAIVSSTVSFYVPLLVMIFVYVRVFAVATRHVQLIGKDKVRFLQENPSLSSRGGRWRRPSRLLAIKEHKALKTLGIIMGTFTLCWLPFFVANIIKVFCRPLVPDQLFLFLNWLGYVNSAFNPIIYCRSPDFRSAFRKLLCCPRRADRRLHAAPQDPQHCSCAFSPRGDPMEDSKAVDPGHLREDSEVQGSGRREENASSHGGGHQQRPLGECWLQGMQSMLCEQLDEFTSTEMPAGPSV

[3] = molecular target: T2, turkey β3C-adrenoceptor (tβ3C) (Meleagris gallopavo, UniProt A0A803YLI8); test: 3H-CGP12177 whole cell binding, CHO tβ3C cells; conditions: for Log KD / Kd: competition with 3H-CGP12177, whole cells, CHO tβ3C, given as log KD, mean ± s.e.m.; for Kd: read-out: Log KD (converted)
T2 sequence (A0A803YLI8 entry or part of it): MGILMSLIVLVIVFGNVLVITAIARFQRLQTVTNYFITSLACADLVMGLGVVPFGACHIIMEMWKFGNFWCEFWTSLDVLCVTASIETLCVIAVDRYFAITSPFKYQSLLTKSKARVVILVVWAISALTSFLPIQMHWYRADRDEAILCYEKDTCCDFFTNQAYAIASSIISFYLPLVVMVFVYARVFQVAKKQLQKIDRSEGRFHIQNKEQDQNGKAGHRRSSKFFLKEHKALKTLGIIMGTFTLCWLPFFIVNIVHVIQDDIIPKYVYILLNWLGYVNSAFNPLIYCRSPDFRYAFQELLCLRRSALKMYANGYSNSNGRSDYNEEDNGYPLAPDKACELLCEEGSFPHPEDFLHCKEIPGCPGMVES

[4] = molecular target: Human β2-adrenoceptor; set-up: method as in PMID 15655528, PMID 20590599; conditions: Human β2, given for comparison; ref 25 and 30; cited from earlier work
[5] = molecular target: T2, turkey β3C-adrenoceptor (tβ3C); test: CRE-SPAP production, CHO tβ3C cells; assay type: cell-based; conditions: CHO tβ3C cells

Which results are given for `CC(C)(C)NC[C@H](O)COc1nsnc1N1CCOCC1` [Timolol]?
Log KD [1]: −6.80; Kd [2]: 2 nM

With `CC(C)(C)NCC(O)c1cc(O)cc(O)c1` (stereo not drawn) [Terbutaline] as the molecule, how does the pKd [3] read?
The pKd was 5.62.

And the Kd [2]?
Its Kd is 33900 nM.

With `O=C(NCCNCC(O)COc1ccc(O)cc1)N1CCOCC1` (stereo not drawn) [Xamoterol] as the molecule, how does the pKd [3] read?
The pKd was 5.64.

And the pKd [2]?
Its pKd is 6.23.

With `CC(CCc1ccccc1)NCC(O)c1ccc(O)c(C(N)=O)c1` (stereo not drawn) [Labetolol] as the molecule, how does the “Log KD” value [1] read?
The value was −6.18.

And the “Log KD” value [3]?
Its value is −7.42±0.04.

And the “Log KD” value [2]?
Its value is −7.70±0.04.

Which Kd [3] does the source give for `CC(C)NCC(O)COc1ccc(CC(N)=O)cc1` (stereo not drawn) [Atenolol] here?
Its Kd is 17800 nM.

What about the Kd [2] of the same molecule?
The Kd was 17400 nM.

Which “Log KD” value [1] does the source give for `COc1ccc(CCNC[C@H](O)c2ccc(O)cc2)cc1OC` [Denopamine] here?
Its value is −5.30.

What about the Kd [3] of the same molecule?
The Kd was 2340 nM.

What about the Kd [2] of the same molecule?
The Kd was 1120 nM.

What about the “Log KD” value [4] of the same molecule?
The value was −5.83.

For `COc1ccccc1OCCNCC(O)COc1cccc2[nH]c3ccccc3c12` (stereo not drawn) [Carvedilol], which Kd [2] is on record?
The Kd was 0.123 nM.

Which “Log KD” value [1] does the source give for `OC(CNCC(O)C1CCc2cc(F)ccc2O1)C1CCc2cc(F)ccc2O1` (stereo not drawn) [Nebivolol] here?
Its value is −7.04.

And the Kd [3]?
Its Kd is 16.6 nM.

And the Kd [2]?
The Kd was 1.48 nM.

And the “Log KD” value [4]?
The value was −7.92.

Which results are given for `CC(C)NCC(O)c1ccc(NS(C)(=O)=O)cc1` (stereo not drawn) [Sotalol]?
Log KD [1]: −5.05; Kd [3]: 537 nM; Kd [2]: 692 nM

Which results are given for `CC(C)NCC(O)COc1cccc2[nH]c3ccccc3c12` (stereo not drawn) [Carazolol]?
Log KD [1]: −8.35; Kd [3]: 0.012 nM; Kd [2]: 0.0537 nM

Which results are given for `CC(C)NCC(O)COc1cccc2[nH]ccc12` (stereo not drawn) [Pindolol]?
pKd [3]: 8.71; Kd [2]: 5.25 nM

For `CC(C)OC(=O)c1cc2c(OCC(O)CNC(C)(C)C)cccc2[nH]1` (stereo not drawn) [SDZ21009], which “Log KD” value [1] is on record?
Its value is −7.10.

And the “Log KD” value [3]?
Its value is −10.17±0.08.

What about the “Log KD” value [2] of the same molecule?
Its value is −9.06±0.07.

What about the “Log KD” value [4] of the same molecule?
Its value is −10.28.

With `CC(C)NCC(O)COc1ccc(CCOCC2CC2)cc1` (stereo not drawn) [Betaxalol] as the molecule, how does the “Log KD” value [1] read?
The value was −5.97.

And the Kd [2]?
Its Kd is 575 nM.

With `Cn1cc(C(F)(F)F)nc1-c1ccc(OCC(O)CNCCOc2ccc(O)c(C(N)=O)c2)cc1` (stereo not drawn) [CGP20712A] as the molecule, how does the pKd [3] read?
The pKd was 5.40.

And the pKd ([5]; Log KD CGP20712A, vs agonist BRL37344, CRE-SPAP)?
The pKd was 5.51.

And the pKd ([5]; Log KD CGP20712A, vs agonist CGP12177, CRE-SPAP)?
The pKd was 5.57.

And the pKd ([5]; Log KD CGP20712A, vs agonist adrenaline, CRE-SPAP)?
The pKd was 5.34.

What about the pKd ([5]; Log KD CGP20712A, vs agonist cimaterol, CRE-SPAP) of the same molecule?
Its pKd is 5.46.

What about the pKd ([5]; Log KD CGP20712A, vs agonist clenbuterol, CRE-SPAP) of the same molecule?
The pKd was 5.75.

What about the pKd ([5]; Log KD CGP20712A, vs agonist dobutamine, CRE-SPAP) of the same molecule?
Its pKd is 5.13.

What about the pKd ([5]; Log KD CGP20712A, vs agonist fenoterol, CRE-SPAP) of the same molecule?
The pKd was 5.61.

And the pKd ([5]; Log KD CGP20712A, vs agonist formoterol, CRE-SPAP)?
The pKd was 5.44.

What about the pKd ([5]; Log KD CGP20712A, vs agonist isoprenaline, CRE-SPAP) of the same molecule?
The pKd was 5.43.

What about the pKd ([5]; Log KD CGP20712A, vs agonist noradrenaline, CRE-SPAP) of the same molecule?
The pKd was 5.28.

And the pKd ([5]; Log KD CGP20712A, vs agonist salbutamol, CRE-SPAP)?
The pKd was 5.49.

And the pKd ([5]; Log KD CGP20712A, vs agonist salmeterol, CRE-SPAP)?
The pKd was 5.20.

With `COCCc1ccc(OCC(O)CNC(C)C)cc1` (stereo not drawn) [Metoprolol] as the molecule, how does the pKd [3] read?
The pKd was 5.96.

What about the pKd [2] of the same molecule?
Its pKd is 5.78.

With `CCCC(=O)Nc1ccc(OCC(O)CNC(C)C)c(C(C)=O)c1` (stereo not drawn) [Acebutolol] as the molecule, how does the Kd [3] read?
The Kd was 4070 nM.

And the Kd [2]?
Its Kd is 3890 nM.

What does the source list for `O=C(O)COc1ccc(OCCNC[C@H](O)COc2ccccc2)cc1` [ICI215001]?
Log KD [1]: −6.63; Log KD [3]: −5.31±0.09; Log KD [2]: −6.55±0.06

For `CC(C)(C)NCC(O)c1ccccc1Cl` (stereo not drawn) [Tulobuterol], which “Log KD” value [1] is on record?
Its value is −4.72.

And the pKd [3]?
Its pKd is 6.64.

And the Kd [2]?
Its Kd is 3470 nM.

What about the “Log KD” value [4] of the same molecule?
Its value is −6.83.

Which “Log KD” value [1] does the source give for `C=CCc1ccccc1OCC(O)CNC(C)C` (stereo not drawn) [Alprenolol] here?
The value was −6.93.

What about the pKd [3] of the same molecule?
Its pKd is 8.44.

And the Kd [2]?
Its Kd is 14.1 nM.

With `Cc1ccc(OCC(O)C(C)NC(C)C)c2c1CCC2` (stereo not drawn) [ICI118551] as the molecule, how does the pKd [3] read?
Its pKd is 8.93.

What about the pKd ([5]; Log KD ICI118551, vs agonist BRL37344, CRE-SPAP) of the same molecule?
Its pKd is 9.31.

And the pKd ([5]; Log KD ICI118551, vs agonist CGP12177, CRE-SPAP)?
The pKd was 9.50.

What about the pKd ([5]; Log KD ICI118551, vs agonist adrenaline, CRE-SPAP) of the same molecule?
Its pKd is 8.79.

And the pKd ([5]; Log KD ICI118551, vs agonist cimaterol, CRE-SPAP)?
The pKd was 9.40.

And the pKd ([5]; Log KD ICI118551, vs agonist clenbuterol, CRE-SPAP)?
Its pKd is 9.47.

And the pKd ([5]; Log KD ICI118551, vs agonist dobutamine, CRE-SPAP)?
Its pKd is 8.94.

What about the pKd ([5]; Log KD ICI118551, vs agonist fenoterol, CRE-SPAP) of the same molecule?
The pKd was 9.34.

What about the pKd ([5]; Log KD ICI118551, vs agonist formoterol, CRE-SPAP) of the same molecule?
The pKd was 9.29.

What about the pKd ([5]; Log KD ICI118551, vs agonist isoprenaline, CRE-SPAP) of the same molecule?
The pKd was 8.60.

And the pKd ([5]; Log KD ICI118551, vs agonist noradrenaline, CRE-SPAP)?
The pKd was 8.86.

What about the pKd ([5]; Log KD ICI118551, vs agonist salbutamol, CRE-SPAP) of the same molecule?
The pKd was 9.31.

What about the pKd ([5]; Log KD ICI118551, vs agonist salmeterol, CRE-SPAP) of the same molecule?
Its pKd is 9.21.

Which results are given for `CCc1ccccc1OC[C@@H](O)CN[C@H]1CCCc2ccccc21.O=C(O)C(=O)O` [SR59230A, 3-(2-Ethylphenoxy)-1-[(1,S)-1,2,3,4-tetrahydronapth-1-ylamino]-2S-2-propanol oxalate]?
Log KD [1]: −7.37; Log KD [3]: −7.96±0.08; Log KD [2]: −7.65±0.06; Log KD [4]: −8.45

With `CC(C)NCC(O)COc1ccc(COCCOC(C)C)cc1` (stereo not drawn) [Bisoprolol] as the molecule, how does the Kd [3] read?
Its Kd is 2630 nM.

And the Kd [2]?
The Kd was 550 nM.

Which “Log KD” value [1] does the source give for `COCCNC(=O)COc1ccc(OCCNC[C@H](O)COc2ccccc2)cc1` [ZD7114] here?
Its value is −6.78.

What about the “Log KD” value [3] of the same molecule?
The value was −6.59±0.10.

What about the “Log KD” value [2] of the same molecule?
The value was −7.59±0.04.

What about the “Log KD” value [4] of the same molecule?
The value was −7.31.
